Results reported in patent US10752587B2, “Homobispiperidinyl derivatives as liver X receptor beta agonists, compositions and their use” (Merck Sharp & Dohme Corp., priority 2015, dated 2020).
Where two headings read alike, the source gives them in different places.

How the values were obtained:
[1] = biological target: T1, glutathione-S-transferase (GST) tagged LXRbeta LBD (ligand binding domain) (Homo sapiens, UniProt P55055); test: LanthaScreen TR-FRET Liver X Receptor Coactivator Assay, co-activator recruitment to LXRbeta LBD; assay type: biochemical
T1 construct: purchased Invitrogen pv4658.pps
T1 sequence (P55055 222-460 limits assumed): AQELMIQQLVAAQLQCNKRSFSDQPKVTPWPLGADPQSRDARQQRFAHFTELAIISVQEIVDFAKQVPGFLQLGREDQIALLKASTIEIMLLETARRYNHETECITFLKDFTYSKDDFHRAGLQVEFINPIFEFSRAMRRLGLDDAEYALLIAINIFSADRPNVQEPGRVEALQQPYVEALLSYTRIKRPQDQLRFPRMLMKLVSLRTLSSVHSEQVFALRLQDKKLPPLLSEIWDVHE
Method: (§1) Potency (Inflection Point, IP) and efficacy (Emax) are evaluated via compound-induced co-activator recruitment to glutathione-S-transferase (GST) tagged LXRbeta and LXRalpha LBD (ligand binding domain) proteins in relation to reference dual agonist compound T0901317 (N-(2,2,2-Trifluoroethyl)-N-[4-[2,2,2-trifluoro-1-hydroxy-1-(trifluoromethyl)ethyl] phenyl] benzenesulfonamide) using the LanthaScreen™ TR-FRET Liver X Receptor Coactivator Assays according to manufacturer's instructions (Invitrogen catalog number pv4658.pps and pv4655). While running the LanthaScreen™ TR-FRET Liver X Receptor Coactivator Assay, LXR alpha-LBD or LXR beta-LBD was added to ligand test compounds followed by addition of a mixture of a fluorescein-labelled coactivator peptide and terbium-conjugated anti-GST antibody. After an incubation period at room temperature, TR-FRET (time-resolved fluorescence resonance energy transfer) was measured using a filter-based instrument capable of TR-FRET, e.g. PerkinElmer Envision.

[2] = biological target: T2, glutathione-S-transferase (GST) tagged LXRalpha LBD (ligand binding domain) (Homo sapiens, UniProt Q13133); test: LanthaScreen TR-FRET Liver X Receptor Coactivator Assay, co-activator recruitment to LXRalpha LBD; assay type: biochemical; conditions: for LXR alpha IP (nM) / EC50: potency (Inflection Point, IP), co-activator recruitment to LXRalpha LBD, in relation to T0901317; for EC50: read-out: LXR alpha IP
T2 construct: purchased Invitrogen pv4655
T2 sequence (Q13133 209-447 limits assumed): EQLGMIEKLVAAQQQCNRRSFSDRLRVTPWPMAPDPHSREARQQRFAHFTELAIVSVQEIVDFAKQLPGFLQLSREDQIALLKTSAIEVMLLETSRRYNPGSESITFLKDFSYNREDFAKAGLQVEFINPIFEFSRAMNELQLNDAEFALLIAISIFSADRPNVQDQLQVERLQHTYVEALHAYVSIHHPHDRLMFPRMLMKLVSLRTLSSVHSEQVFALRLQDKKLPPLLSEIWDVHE
Method: as §1

[3] = efficacy at max dose, in relation to reference dual agonist T0901317, read-out: LXR beta Activity @ max dose (%)
[4] = potency (Inflection Point, IP), co-activator recruitment to LXRbeta LBD, in relation to T0901317, read-out: LXR beta IP
[5] = efficacy at max dose, in relation to reference dual agonist T0901317, read-out: LXR alpha Activity @ max dose (%)

Row | Emax [1, 3] [%] | EC50 [1, 4] [nM] | Emax [2, 5] [%] | LXR alpha IP (nM) [2] | EC50 [2] [nM] | SMILES | other results
1 | 48 | 97 | 0 | NO IP | – | CN(C)C(=O)c1ccc(N2CCC(CC3CCN(C(=O)C4(c5ccccc5)CC4)CC3)CC2)cc1Cl [Example 2-9, 2-chloro-N,N-dimethyl-4-[4-({1-[(1-phenyl-cyclopropyl)carbonyl]piperidin-4-yl}methyl)piperidin-1-yl] benzamide] | –
2 | 89 | 4 | 48 | – | 50 | CN(C)C(=O)c1ccc(N2CCC(CC3CCN(C(=O)[C@](O)(c4cc(F)cc(F)c4)C(F)(F)F)CC3)CC2)cc1Cl [Example 2-94, 2-chloro-4-[4-({1-[(2R)-2-(3,5-difluoro-phenyl)-3,3,3-trifluoro-2-hydroxy-propanoyl]piperidin-4-yl}methyl)piperidin-1-yl]-N,N-dimethyl-benzamide] | –
3 | 74 | 9 | 52 | – | 58 | NC(=O)c1ccc(N2CCC(CC3CCN(C(=O)[C@](O)(c4ccccc4)C(F)(F)F)CC3)CC2)cc1Cl [Example 12-2, 2-chloro-4-[4-({1-[(2R)-3,3,3-trifluoro-2-hydroxy-2-phenyl-propanoyl]piperidin-4-yl}methyl)piperidin-1-yl]benzamide] | –
4 | 60 | 22 | 26 | – | 875 | CN(C)C(=O)c1ncc(N2CCC(CC3CCN(C(=O)C(O)(c4cccc(Cl)c4)C(F)(F)F)CC3)CC2)cc1Cl (centres unmarked) [Example 2-6, 3-chloro-5-[4-({1-[2-(3-chlorophenyl)-3,3,3-trifluoro-2-hydroxy-propanoyl]piperidin-4-yl}methyl)piperidin-1-yl]-N,N-dimethylpyridine-2-carboxamide] | –
5 | – | – | – | – | – | COc1cccc(CS(=O)(=O)N2CC(CC3CCN(c4ccc(C(=O)N(C)C)c(Cl)c4)CC3)C2)c1 [Example 13-3, 2-chloro-4-[4-({1-[(3-methoxybenzyl)-sulfonyl]azetidin-3-yl}methyl)piperidin-1-yl]-N,N-dimethyl-benzamide] | EC50 ([1]; co-activator recruitment to GST-LXRbeta LBD, TR-FRET, read-out: LXR beta IP (Inflection Point, potency)): 604 nM; Emax ([1]; efficacy in relation to reference dual agonist T0901317, read-out: LXR beta Activity @ max dose): 26%; LXR alpha IP (Inflection Point, potency) ([2]; co-activator recruitment to GST-LXRalpha LBD, TR-FRET): NO IP; Emax ([2]; efficacy in relation to reference dual agonist T0901317, read-out: LXR alpha Activity @ max dose): 0%
6 | 82 | 23 | 9 | NO IP | – | CCOc1cccc([C@@](O)(C(=O)N2CCC(CC3CCN(c4ccc(C(=O)NC)c(Cl)n4)CC3)CC2)C(F)(F)F)c1 [Example 7-137, 2-chloro-6-[4-({1-[(2R)-2-(3-ethoxyphenyl)-3,3,3-trifluoro-2-hydroxypropanoyl]piperidin-4-yl}methyl)piperidin-1-yl]-N-methylpyridine-3-carboxamide] | –
7 | 44 | 8 | 10 | NO IP | – | Cc1cccc([C@@](O)(C(=O)N2CCC(CC3CCN(c4ccc(C(=O)N(C)C)c(Cl)c4)CC3)CC2)C(F)(F)F)c1 [Example 2-112, 2-chloro-N,N-dimethyl-4-[4-({1-[(2R)-3,3,3-trifluoro-2-hydroxy-2-(3-methylphenyl)propanoyl]piperidin-4-yl}methyl)piperidin-1-yl]benzamide] | –
8 | 64 | 84 | 9 | NO IP | – | CN(C)C(=O)c1ccc(N2CCC(CC3CCN(C(=O)[C@](O)(c4ccccc4)C(F)(F)F)C3)CC2)cc1Cl (stereo partly drawn) [Example 2-71, 2-chloro-N,N-dimethyl-4-[4-({1-[(2R)-3,3,3-trifluoro-2-hydroxy-2-phenyl-propanoyl]pyrrolidin-3-yl}methyl)piperidin-1-yl]benzamide] | –
9 | 18 | 7 | 0 | NO IP | – | COc1cccc([C@@](O)(C(=O)N2CCC(C)(CC3CCN(c4ccc(C(=O)N(C)C)c(Cl)c4)CC3)CC2)C(F)(F)F)c1 [Example 2-45, 2-chloro-N,N-dimethyl-4-[4-({4-methyl-1-[(2R)-3,3,3-trifluoro-2-hydroxy-2-(3-methoxyphenyl)propanoyl]piperidin-4-yl}methyl)piperidin-1-yl]benzamide] | –
10 | 37 | 3 | 9 | NO IP | – | NC(=O)c1ccc(N2CCC(CC3CCN(C(=O)[C@](O)(c4cc(Cl)cc(Cl)c4)C(F)(F)F)CC3)CC2)cc1Cl [Example 12-1, 2-chloro-4-[4-({1-[(2R)-2-(3,5-dichlorophenyl)-3,3,3-trifluoro-2-hydroxypropanoyl]piperidin-4-yl}methyl)piperidin-1-yl]benzamide] | –
11 | 69 | 7 | 23 | – | 252 | CN(C)C(=O)c1ccc(N2CCC(CC3CCN(C(=O)[C@](O)(c4cccc(C(F)(F)F)c4)C(F)(F)F)CC3)CC2)nc1Cl [Example 7-87, 2-chloro-N,N-dimethyl-6-{4-[(1-{(2R)-3,3,3-trifluoro-2-hydroxy-2-[3-(trifluoromethyl)phenyl]propanoyl}piperidin-4-yl)methyl]piperidin-1-yl}pyridine-3-carboxamide] | –
12 | 95 | 8 | 41 | – | 123 | Cc1cc(N2CCC(CC3CCN(C(=O)[C@](O)(c4cc(F)cc(Cl)c4)C(F)(F)F)CC3)CC2)ccc1C(=O)N(C)C [Example 2-153, 4-[4-({1-[(2R)-2-(3-chloro-5-fluorophenyl)-3,3,3-trifluoro-2-hydroxy-propanoyl]piperidin-4-yl}methyl)piperidin-1-yl]-N,N,2-trimethyl-benzamide] | –
13 | 83 | 30 | 9 | NO IP | – | CC(C)Oc1cccc([C@@](O)(C(=O)N2CC(CC3CCN(c4ccc(C(=O)N(C)C)c(Cl)n4)CC3)C2)C(F)(F)F)c1 [Example 7-42, 2-chloro-N,N-dimethyl-6-{4-[(1-{(2R)-3,3,3-trifluoro-2-hydroxy-2-[3-(1-methylethoxy)phenyl]propanoyl}azetidin-3-yl)methyl]piperidin-1-yl}pyridine-3-carboxamide] | –
14 | 79 | 6 | 29 | NO IP | – | COc1nc(N2CCC(CC3CCN(C(=O)[C@](O)(c4cc(Cl)cc(Cl)c4)C(F)(F)F)CC3)CC2)ccc1C(=O)N(C)C [Example 7-20, 6-[4-({1-[(2R)-2-(3,5-dichlorophenyl)-3,3,3-trifluoro-2-hydroxypropanoyl]piperidin-4-yl}methyl)piperidin-1-yl]-2-methoxy-N,N-dimethylpyridine-3-carboxamide] | –
15 | 26 | 298 | 0 | NO IP | – | CN(C)C(=O)c1ccc(N2CCC(CC3CCN(C(=O)C(O)(c4ccc(Cl)cc4)C(F)(F)F)CC3)CC2)cc1Cl (centres unmarked) [Example 2-15, 2-chloro-4-[4-({1-[2-(4-chlorophenyl)-3,3,3-trifluoro-2-hydroxy-propanoyl]piperidin-4-yl}methyl)piperidin-1-yl]-N,N-dimethyl-benzamide] | –
16 | 122 | 55 | 45 | – | 2060 | CN(C)C(=O)c1ccc(N2CCC(CC3CCN(C(=O)[C@@](O)(c4ccccc4F)C(F)(F)F)CC3)CC2)nc1Cl [Example 7-71, 2-chloro-N,N-dimethyl-6-[4-({1-[(2S)-3,3,3-trifluoro-2-(2-fluorophenyl)-2-hydroxypropanoyl]piperidin-4-yl}methyl)piperidin-1-yl]pyridine-3-carboxamide] | –

Row | SMILES | Emax [1, 3] [%] | EC50 [1, 4] [nM] | Emax [2, 5] [%] | LXR alpha IP (nM) [2] | EC50 [2] [nM] | other results
17 | CN(C)C(=O)c1ccc(N2CCC(SC3CCN(C(=O)[C@](O)(c4cccc(OC(F)(F)F)c4)C(F)(F)F)CC3)CC2)nc1Cl [Example 9-1, (R)-2-chloro-N,N-dimethyl-6-(4-(1-(3,3,3-trifluoro-2-hydroxy-2-(3-(trifluoromethoxy)phenyl)propanoyl)piperidin-4-ylthio)piperidin-1-yl)nicotinamide] | – | – | – | – | 546 | EC50 ([1]; LXR beta IP (nM), potency (Inflection Point, IP), co-activator recruitment to LXRbeta LBD, in relation to T0901317): 13 nM; Emax ([1]; read-out: LXR beta Activity @ max dose (%)): 60%; Emax ([2]; read-out: LXR alpha Activity @ max dose (%)): 21%
